Laboratory results as given in ChEMBL document CHEMBL4715855, “N-phenyl ureidobenzenesulfonates, a novel class of promising human dihydroorotate dehydrogenase inhibitors” (Bioorg Med Chem, 2020).

Key:
Type in all cases: functional, cell-based
SR = test: Antiproliferative activity against human SR cells assessed as cell growth inhibition measured after 48 hrs by sulforhodamine B assay
NCI-H322M = test: Antiproliferative activity against human NCI-H322M cells assessed as cell growth inhibition measured after 48 hrs by sulforhodamine B assay
UO-31 = test: Antiproliferative activity against human UO-31 cells assessed as cell growth inhibition measured after 48 hrs by sulforhodamine B assay; conditions: UO-31, 48 h
COLO 205 = test: Antiproliferative activity against human COLO 205 cells assessed as cell growth inhibition measured after 48 hrs by sulforhodamine B assay; conditions: COLO 205, 48 h
OVCAR-8 = test: Antiproliferative activity against human OVCAR-8 cells assessed as cell growth inhibition measured after 48 hrs by sulforhodamine B assay; conditions: OVCAR-8, 48 h
CAKI-1 = test: Antiproliferative activity against human CAKI-1 cells assessed as cell growth inhibition measured after 48 hrs by sulforhodamine B assay; conditions: CAKI-1, 48 h
DU-145 = test: Antiproliferative activity against human DU-145 cells assessed as cell growth inhibition measured after 48 hrs by sulforhodamine B assay; conditions: DU-145, 48 h
SK-OV-3 = test: Antiproliferative activity against human SK-OV-3 cells assessed as cell growth inhibition measured after 48 hrs by sulforhodamine B assay; conditions: SK-OV-3, 48 h
SK-MEL-5 = test: Antiproliferative activity against human SK-MEL-5 cells assessed as cell growth inhibition measured after 48 hrs by sulforhodamine B assay; conditions: SK-MEL-5, 48 h
SK-MEL-28 = test: Antiproliferative activity against human SK-MEL-28 cells assessed as cell growth inhibition measured after 48 hrs by sulforhodamine B assay; conditions: SK-MEL-28, 48 h
OVCAR-4 = test: Antiproliferative activity against human OVCAR-4 cells assessed as cell growth inhibition measured after 48 hrs by sulforhodamine B assay; conditions: OVCAR-4, 48 h
HT-29 [1] = test: Antiproliferative activity against human HT-29 cells assessed as cell growth inhibition measured after 48 hrs in presence of uridine by SRB assay; conditions: HT-29, 48 h
CCRF-CEM = test: Antiproliferative activity against human CCRF-CEM cells assessed as cell growth inhibition measured after 48 hrs by sulforhodamine B assay
RXF 393 = test: Antiproliferative activity against human RXF 393 cells assessed as cell growth inhibition measured after 48 hrs by sulforhodamine B assay; conditions: RXF 393, 48 h
HT-1080 [2] = test: Antiproliferative activity against human HT-1080 cells assessed as cell growth inhibition measured after 48 hrs by SRB assay; conditions: HT-1080, 48 h
ACHN = test: Antiproliferative activity against human ACHN cells assessed as cell growth inhibition measured after 48 hrs by sulforhodamine B assay
NCI-H460 = test: Antiproliferative activity against human NCI-H460 cells assessed as cell growth inhibition measured after 48 hrs by sulforhodamine B assay; conditions: NCI-H460, 48 h
MCF7 [3] = test: Antiproliferative activity against human MCF7 cells assessed as cell growth inhibition measured after 48 hrs in presence of uridine by SRB assay; conditions: MCF7, 48 h
M14 = test: Antiproliferative activity against human M14 cells assessed as cell growth inhibition measured after 48 hrs by sulforhodamine B assay; conditions: M14, 48 h
OVCAR-5 = test: Antiproliferative activity against human OVCAR-5 cells assessed as cell growth inhibition measured after 48 hrs by sulforhodamine B assay; conditions: OVCAR-5, 48 h
MOLT-4 = test: Antiproliferative activity against human MOLT-4 cells assessed as cell growth inhibition measured after 48 hrs by sulforhodamine B assay; conditions: MOLT-4, 48 h
NCI-H226 = test: Antiproliferative activity against human NCI-H226 cells assessed as cell growth inhibition measured after 48 hrs by sulforhodamine B assay; conditions: NCI-H226, 48 h
SN12C = test: Antiproliferative activity against human SN12C cells assessed as cell growth inhibition measured after 48 hrs by sulforhodamine B assay
U-251 = test: Antiproliferative activity against human U-251 cells assessed as cell growth inhibition measured after 48 hrs by sulforhodamine B assay; conditions: U-251, 48 h
Malme-3M = test: Antiproliferative activity against human Malme-3M cells assessed as cell growth inhibition measured after 48 hrs by sulforhodamine B assay
KM12 = test: Antiproliferative activity against human KM12 cells assessed as cell growth inhibition measured after 48 hrs by sulforhodamine B assay; conditions: KM12, 48 h
PC-3 = test: Antiproliferative activity against human PC-3 cells assessed as cell growth inhibition measured after 48 hrs by sulforhodamine B assay; conditions: PC-3, 48 h
TK-10 = test: Antiproliferative activity against human TK-10 cells assessed as cell growth inhibition measured after 48 hrs by sulforhodamine B assay; conditions: TK-10, 48 h
A498 = test: Antiproliferative activity against human A498 cells assessed as cell growth inhibition measured after 48 hrs by sulforhodamine B assay; conditions: A498, 48 h
NCI/ADR-RES = test: Antiproliferative activity against human NCI/ADR-RES cells assessed as cell growth inhibition measured after 48 hrs by sulforhodamine B assay
Hs-578T = test: Antiproliferative activity against human Hs-578T cells assessed as cell growth inhibition measured after 48 hrs by sulforhodamine B assay
786-0 = test: Antiproliferative activity against human 786-0 cells assessed as cell growth inhibition measured after 48 hrs by sulforhodamine B assay; conditions: 786-0, 48 h
HOP-62 = test: Antiproliferative activity against human HOP-62 cells assessed as cell growth inhibition measured after 48 hrs by sulforhodamine B assay; conditions: HOP-62, 48 h
A549 = test: Antiproliferative activity against human A549/ATCC cells assessed as cell growth inhibition measured after 48 hrs by sulforhodamine B assay; conditions: A549, 48 h
SF-539 = test: Antiproliferative activity against human SF-539 cells assessed as cell growth inhibition measured after 48 hrs by sulforhodamine B assay; conditions: SF-539, 48 h
OVCAR-3 = test: Antiproliferative activity against human OVCAR-3 cells assessed as cell growth inhibition measured after 48 hrs by sulforhodamine B assay; conditions: OVCAR-3, 48 h
MCF7 [4] = test: Antiproliferative activity against human MCF7 cells assessed as cell growth inhibition measured after 48 hrs by SRB assay; conditions: MCF7, 48 h
SK-MEL-2 = test: Antiproliferative activity against human SK-MEL-2 cells assessed as cell growth inhibition measured after 48 hrs by sulforhodamine B assay; conditions: SK-MEL-2, 48 h
K562 = test: Antiproliferative activity against human K562 cells assessed as cell growth inhibition incubated for 48 hrs by sulforhodamine B assay; conditions: K562, 48 h
UACC-62 = test: Antiproliferative activity against human UACC-62 cells assessed as cell growth inhibition measured after 48 hrs by sulforhodamine B assay; conditions: UACC-62, 48 h
T47D = test: Antiproliferative activity against human T47D cells assessed as cell growth inhibition measured after 48 hrs by sulforhodamine B assay
SF-268 = test: Antiproliferative activity against human SF-268 cells assessed as cell growth inhibition measured after 48 hrs by sulforhodamine B assay; conditions: SF-268, 48 h
MDA-MB-231 = test: Antiproliferative activity against human MDA-MB-231/ATCC cells assessed as cell growth inhibition measured after 48 hrs by sulforhodamine B assay; conditions: MDA-MB-231, 48 h
MDA-MB-435 = test: Antiproliferative activity against human MDA-MB-435 cells assessed as cell growth inhibition measured after 48 hrs by sulforhodamine B assay; conditions: MDA-MB-435, 48 h
HT-1080 [5] = test: Antiproliferative activity against human HT-1080 cells assessed as cell growth inhibition measured after 48 hrs in presence of uridine by SRB assay; conditions: HT-1080, 48 h
NCI-H522 = test: Antiproliferative activity against human NCI-H522 cells assessed as cell growth inhibition measured after 48 hrs by sulforhodamine B assay; conditions: NCI-H522, 48 h
HCT-116 = test: Antiproliferative activity against human HCT-116 cells assessed as cell growth inhibition measured after 48 hrs by sulforhodamine B assay; conditions: HCT-116, 48 h
UACC-257 = test: Antiproliferative activity against human UACC-257 cells assessed as cell growth inhibition measured after 48 hrs by sulforhodamine B assay; conditions: UACC-257, 48 h
SNB-75 = test: Antiproliferative activity against human SNB-75 cells assessed as cell growth inhibition measured after 48 hrs by sulforhodamine B assay; conditions: SNB-75, 48 h
HCC 2998 = test: Antiproliferative activity against human HCC 2998 cells assessed as cell growth inhibition measured after 48 hrs by sulforhodamine B assay; conditions: HCC 2998, 48 h
HOP-92 = test: Antiproliferative activity against human HOP-92 cells assessed as cell growth inhibition measured after 48 hrs by sulforhodamine B assay; conditions: HOP-92, 48 h
M21 [6] = test: Antiproliferative activity against human M21 cells assessed as cell growth inhibition measured after 48 hrs in presence of uridine by SRB assay; conditions: M21, 48 h
RPMI-8226 = test: Antiproliferative activity against human RPMI-8226 cells assessed as cell growth inhibition measured after 48 hrs by sulforhodamine B assay; conditions: RPMI-8226, 48 h
IGROV-1 = test: Antiproliferative activity against human IGROV-1 cells assessed as cell growth inhibition measured after 48 hrs by sulforhodamine B assay; conditions: IGROV-1, 48 h
LOX IMVI = test: Antiproliferative activity against human LOX IMVI cells assessed as cell growth inhibition measured after 48 hrs by sulforhodamine B assay
SF-295 = test: Antiproliferative activity against human SF-295 cells assessed as cell growth inhibition measured after 48 hrs by sulforhodamine B assay; conditions: SF-295, 48 h
SW-620 = test: Antiproliferative activity against human SW-620 cells assessed as cell growth inhibition measured after 48 hrs by sulforhodamine B assay; conditions: SW-620, 48 h
HT-29 [7] = test: Antiproliferative activity against human HT-29 cells assessed as cell growth inhibition measured after 48 hrs by SRB assay; conditions: HT-29, 48 h
BT-549 = test: Antiproliferative activity against human BT-549 cells assessed as cell growth inhibition measured after 48 hrs by sulforhodamine B assay; conditions: BT-549, 48 h
HCT-15 = test: Antiproliferative activity against human HCT-15 cells assessed as cell growth inhibition measured after 48 hrs by sulforhodamine B assay; conditions: HCT-15, 48 h
NCI-H23 = test: Antiproliferative activity against human NCI-H23 cells assessed as cell growth inhibition measured after 48 hrs by sulforhodamine B assay; conditions: NCI-H23, 48 h
M21 [8] = test: Antiproliferative activity against human M21 cells assessed as cell growth inhibition measured after 48 hrs by SRB assay; conditions: M21, 48 h
SNB-19 = test: Antiproliferative activity against human SNB-19 cells assessed as cell growth inhibition measured after 48 hrs by sulforhodamine B assay; conditions: SNB-19, 48 h

IC50 (NCI-H322M): 15100 nM
IC50 (COLO 205): 513 nM
IC50 (OVCAR-8): 324 nM
IC50 (DU-145): 263 nM
IC50 (SK-OV-3): 16200 nM
IC50 (SK-MEL-5): 1380 nM
IC50 (SK-MEL-28): 10000 nM
IC50 (OVCAR-4): 2750 nM
IC50 (HT-29 [1]): 24000 nM
IC50 (CCRF-CEM): 282 nM
IC50 (HT-1080 [2]): 210 nM
IC50 (ACHN): 151 nM
IC50 (NCI-H460): 129 nM
IC50 (MCF7 [3]): 25000 nM
IC50 (OVCAR-5): 38900 nM
IC50 (MOLT-4): 89.1 nM
IC50 (NCI-H226): 19500 nM
IC50 (U-251): 195 nM
IC50 (PC-3): 759 nM
IC50 (786-0): 195 nM
IC50 (A549): 234 nM
IC50 (OVCAR-3): 3720 nM
IC50 (MCF7 [4]; read-out: IC50): 5100 nM
IC50 (MCF7 [4]; read-out: pIC50 (converted)): 269 nM
IC50 (SK-MEL-2): 61700 nM
IC50 (K562): 145 nM
IC50 (T47D): 17000 nM
IC50 (MDA-MB-231): 3630 nM
IC50 (MDA-MB-435): 372 nM
IC50 (HT-1080 [5]): 17000 nM
IC50 (NCI-H522): 2000 nM
IC50 (HCT-116): 87.1 nM
IC50 (HCC 2998): 9550 nM
IC50 (RPMI-8226): 372 nM
IC50 (SW-620): 380 nM
IC50 (HT-29 [7]; read-out: IC50): 590 nM
IC50 (HT-29 [7]; read-out: pIC50 (converted)): 372 nM
IC50 (BT-549): 57500 nM
IC50 (HCT-15): 56.2 nM
IC50 (NCI-H23): 21400 nM
Compound: Cc1c(-c2ccc(-c3ccccc3F)cc2)nc2ccc(F)cc2c1C(=O)O [BREQUINAR]
IC50 (SR): 427 nM
IC50 (UO-31): 1150 nM
IC50 (CAKI-1): 912 nM
IC50 (RXF 393): 11700 nM
IC50 (M14): 4680 nM
IC50 (SN12C): 1780 nM
IC50 (Malme-3M): 15500 nM
IC50 (KM12): 209 nM
IC50 (TK-10): 16200 nM
IC50 (A498): 50100 nM
IC50 (NCI/ADR-RES): 2190 nM
IC50 (Hs-578T): 6920 nM
IC50 (HOP-62): 1100 nM
IC50 (SF-539): 347 nM
IC50 (UACC-62): 263 nM
IC50 (SF-268): 372 nM
IC50 (UACC-257): 12600 nM
IC50 (SNB-75): 81300 nM
IC50 (HOP-92): 35500 nM
IC50 (M21 [6]): 25000 nM
IC50 (IGROV-1): 302 nM
IC50 (LOX IMVI): 93.3 nM
IC50 (SF-295): 240 nM
IC50 (M21 [8]): 570 nM
IC50 (SNB-19): 1260 nM
